Read-outs that look alike come from different tables or passages of the source.
Columns and labels:
[1] = test system: MDA-MB; conditions: MDA-MB
[2] = test system: MDA-MB; assay: cells; conditions: Homo sapiens, read-out: Average cell viability, MDA-MB; for viability at 50 µg/mL: 50 ug/mL; for viability at 100 µg/mL: 100 ug/mL
[3] = test system: PC3; assay: CIMA assay, cell viability, PC3; conditions: for Fold change in viability AVG / In vitro activity against cancer cell lines, PC3 AVG: PC3
[4] = test system: U373 (glioblastoma-astrocytoma); assay: CIMA assay, cell viability, U373; conditions: for Fold change in viability AVG / In vitro activity against cancer cell lines, U373 AVG: U373
[5] = test system: SKOV3 (ovarian adenocarcinoma); assay: CIMA assay, cell viability, SKOV3; conditions: for Fold change in viability AVG / In vitro activity against cancer cell lines, SKOV AVG: SKOV
[6] = test system: THP-1 (acute monocytic leukemia); assay: CIMA assay, cell viability, THP-1; conditions: for Fold change in viability AVG / In vitro activity against cancer cell lines, THP-1 AVG: THP-1
Experimental: Stock solutions of the extracts were prepared in dimethylsulfoxide (DMSO) at 10 mg/mL and stored in 200 μl aliquots at −20° C. until analysis. This preparation ensured that the DMSO delivered to cells in culture never exceeded 1%.
Prepared extracts were assessed following chronic exposure conditions in which cells were seeded at 2×10^3 cells/well (96 well-plate) and incubated with test compounds for 72 h. Each compound was evaluated over a range of concentrations (0, 10, 25, 50 or 100 μg/ml). Cell proliferation was initially assessed using a standard colorimetric indicator of metabolic activity (CIMA) assay. In this assay, tetrazole reduction was evaluated as a measure of metabolic function that evaluates mitochondrial activity to determine the extent of cell proliferation within a culture. This assay is based on the reduction of yellow tetrazolium salt to purple formazan by mitochondrial reductases enzyme in viable cells, resulting in a color changed that confers a change in absorbance.

[7] = CIMA assay, cell viability, CCD1079SK; conditions: human, Average cell viability, CCD
[8] = test system: CCD1079SK (fibroblast, noncancerous but proliferating); assay: CIMA assay, cell viability, CCD1079SK; conditions: CCD
[9] = test system: A549 (lung carcinoma); assay: CIMA assay (colorimetric indicator of metabolic activity), cell viability, A549; conditions: for Fold change in viability AVG / In vitro activity against cancer cell lines, A549 AVG: A549
[10] = Homo sapiens, PC-3, read-out: Average cell viability, PC3, 50 ug/mL
[11] = Homo sapiens, PC-3, read-out: Average cell viability, PC3, 100 ug/mL
[12] = Homo sapiens, U373 MG, read-out: Average cell viability, U373, 50 ug/mL
[13] = Homo sapiens, U373 MG, read-out: Average cell viability, U373, 100 ug/mL
[14] = Homo sapiens, SK-OV-3, read-out: Average cell viability, SKOV, 50 ug/mL
[15] = Homo sapiens, SK-OV-3, read-out: Average cell viability, SKOV, 100 ug/mL
[16] = Homo sapiens, THP-1, read-out: Average cell viability, THP-1, 50 ug/mL
[17] = Homo sapiens, THP-1, read-out: Average cell viability, THP-1, 100 ug/mL
[18] = CCD1079SK fibroblasts (noncancerous, proliferating)
[19] = Homo sapiens, A549, read-out: Average cell viability, A549, 50 ug/mL
[20] = Homo sapiens, A549, read-out: Average cell viability, A549, 100 ug/mL

## CC/C=C\C/C=C\C/C=C\C/C=C\C/C=C\CCCC(=O)OCC(COC1OC(CO)C(O)C(O)C1O)OC(=O)CCC/C=C\C/C=C\C/C=C\C/C=C\C/C=C\CC (centres unmarked) [Compound 7, MGDG C20:5/C20:5]
[1]; sample at 1 ug/mL
  MDA-MB AVG: 1.16
[1]; sample at 10 ug/mL
  MDA-MB AVG: 1.13
[1]; sample at 50 ug/mL
  MDA-MB AVG: 0.30
[1]; sample at 100 ug/mL
  MDA-MB AVG: 0.27
[1]; 1 ug/mL
  Fold change in viability AVG: 1.16
[1]; 10 ug/mL
  Fold change in viability AVG: 1.13
[1]; 50 ug/mL
  Fold change in viability AVG: 0.30
[1]; 100 ug/mL
  Fold change in viability AVG: 0.27
[2]; 1 ug/mL
  viability at 1 µg/mL: 106%
[2]; 10 ug/mL
  viability at 10 µg/mL: 104%
[2]
  viability at 50 µg/mL: 27%
  viability at 100 µg/mL: 24%
[3]; Homo sapiens, PC-3, read-out: Average cell viability, PC3, 1 ug/mL
  viability at 1 µg/mL: 107%
[3]; Homo sapiens, PC-3, read-out: Average cell viability, PC3, 10 ug/mL
  viability at 10 µg/mL: 103%
[3]; [10]
  viability at 50 µg/mL: 14%
[3]; [11]
  viability at 100 µg/mL: 12%
[3]; PC3, sample at 1 ug/mL
  PC3 AVG: 1.11
[3]; PC3, sample at 10 ug/mL
  PC3 AVG: 1.07
[3]; PC3, sample at 50 ug/mL
  PC3 AVG: 0.14
[3]; PC3, sample at 100 ug/mL
  PC3 AVG: 0.13
[3]; 1 ug/mL
  Fold change in viability AVG: 1.11
[3]; 10 ug/mL
  Fold change in viability AVG: 1.07
[3]; 50 ug/mL
  Fold change in viability AVG: 0.14
[3]; 100 ug/mL
  Fold change in viability AVG: 0.13
[4]; Homo sapiens, U373 MG, read-out: Average cell viability, U373, 1 ug/mL
  viability at 1 µg/mL: 120%
[4]; Homo sapiens, U373 MG, read-out: Average cell viability, U373, 10 ug/mL
  viability at 10 µg/mL: 108%
[4]; [12]
  viability at 50 µg/mL: 6%
[4]; [13]
  viability at 100 µg/mL: 5%
[4]; U373, sample at 1 ug/mL
  U373 AVG: 1.22
[4]; U373, sample at 10 ug/mL
  U373 AVG: 1.10
[4]; U373, sample at 50 ug/mL
  U373 AVG: 0.06
[4]; U373, sample at 100 ug/mL
  U373 AVG: 0.05
[4]; 1 ug/mL
  Fold change in viability AVG: 1.22
[4]; 10 ug/mL
  Fold change in viability AVG: 1.10
[4]; 50 ug/mL
  Fold change in viability AVG: 0.06
[4]; 100 ug/mL
  Fold change in viability AVG: 0.05
[5]; Homo sapiens, SK-OV-3, read-out: Average cell viability, SKOV, 1 ug/mL
  viability at 1 µg/mL: 126%
[5]; Homo sapiens, SK-OV-3, read-out: Average cell viability, SKOV, 10 ug/mL
  viability at 10 µg/mL: 113%
[5]; [14]
  viability at 50 µg/mL: 95%
[5]; [15]
  viability at 100 µg/mL: 46%
[5]; 1 ug/mL
  Fold change in viability AVG: 1.36
[5]; 10 ug/mL
  Fold change in viability AVG: 1.21
[5]; 50 ug/mL
  Fold change in viability AVG: 1.02
[5]; 100 ug/mL
  Fold change in viability AVG: 0.49
[6]; Homo sapiens, THP-1, read-out: Average cell viability, THP-1, 1 ug/mL
  viability at 1 µg/mL: 108%
[6]; Homo sapiens, THP-1, read-out: Average cell viability, THP-1, 10 ug/mL
  viability at 10 µg/mL: 102%
[6]; [16]
  viability at 50 µg/mL: 52%
[6]; [17]
  viability at 100 µg/mL: 50%
[6]; THP-1, sample at 1 ug/mL
  THP-1 AVG: 1.17
[6]; THP-1, sample at 10 ug/mL
  THP-1 AVG: 1.16
[6]; THP-1, sample at 50 ug/mL
  THP-1 AVG: 0.59
[6]; THP-1, sample at 100 ug/mL
  THP-1 AVG: 0.57
[6]; 1 ug/mL
  Fold change in viability AVG: 1.17
[6]; 10 ug/mL
  Fold change in viability AVG: 1.16
[6]; 50 ug/mL
  Fold change in viability AVG: 0.59
[6]; 100 ug/mL
  Fold change in viability AVG: 0.57
[7]; CCD1079SK fibroblast cells (noncancerous, proliferating), 1 ug/mL
  viability at 72 h, 1 ug/mL: 103%
[7]; CCD1079SK fibroblasts (noncancerous, proliferating), 10 ug/mL
  viability at 72 h, 10 ug/mL: 97%
[7]; [18]
  viability at 72 h, 50 ug/mL: 23%
  viability at 72 h, 100 ug/mL: 17%
[8]; 1 ug/mL
  Fold change in viability AVG: 1.13
[8]; 10 ug/mL
  Fold change in viability AVG: 1.06
[8]; 50 ug/mL
  Fold change in viability AVG: 0.25
[8]; 100 ug/mL
  Fold change in viability AVG: 0.19
[9]; A549, sample at 1 ug/mL
  A549 AVG: 0.72
[9]; A549, sample at 10 ug/mL
  A549 AVG: 0.65
[9]; A549, sample at 50 ug/mL
  A549 AVG: 0.64
[9]; A549, sample at 100 ug/mL
  A549 AVG: 0.40
[9]; 1 ug/mL
  Fold change in viability AVG: 0.72
[9]; 10 ug/mL
  Fold change in viability AVG: 0.65
[9]; 50 ug/mL
  Fold change in viability AVG: 0.64
[9]; 100 ug/mL
  Fold change in viability AVG: 0.40
[9]; Homo sapiens, A549, read-out: Average cell viability, A549, 1 ug/mL
  viability at 1 µg/mL: 61%
[9]; Homo sapiens, A549, read-out: Average cell viability, A549, 10 ug/mL
  viability at 10 µg/mL: 56%
[9]; [19]
  viability at 50 µg/mL: 55%
[9]; [20]
  viability at 100 µg/mL: 34%

## CCCCCCCCCCCCCCCC(=O)OCC(O)CO (centres unmarked) [77-38-41-1 B, MAG (C16:0)]
[1]; 50 ug/mL
  Fold change in viability AVG: 0.70
  In vitro activity against cancer cell lines, MDA-MB AVG: 0.70
[1]; 100 ug/mL
  Fold change in viability AVG: 0.30
  In vitro activity against cancer cell lines, MDA-MB AVG: 0.30
[2]
  viability at 50 µg/mL: 64%
  viability at 100 µg/mL: 28%
[3]; [10]
  viability at 50 µg/mL: 52%
[3]; [11]
  viability at 100 µg/mL: 15%
[3]; 50 ug/mL
  Fold change in viability AVG: 0.54
  In vitro activity against cancer cell lines, PC3 AVG: 0.54
[3]; 100 ug/mL
  Fold change in viability AVG: 0.16
  In vitro activity against cancer cell lines, PC3 AVG: 0.16
[4]; [12]
  viability at 50 µg/mL: 13%
[4]; [13]
  viability at 100 µg/mL: 7%
[4]; 50 ug/mL
  Fold change in viability AVG: 0.13
  In vitro activity against cancer cell lines, U373 AVG: 0.13
[4]; 100 ug/mL
  Fold change in viability AVG: 0.07
  In vitro activity against cancer cell lines, U373 AVG: 0.07
[5]; [14]
  viability at 50 µg/mL: 52%
[5]; [15]
  viability at 100 µg/mL: 22%
[5]; 50 ug/mL
  Fold change in viability AVG: 0.56
  In vitro activity against cancer cell lines, SKOV AVG: 0.56
[5]; 100 ug/mL
  Fold change in viability AVG: 0.24
  In vitro activity against cancer cell lines, SKOV AVG: 0.24
[6]; [16]
  viability at 50 µg/mL: 96%
[6]; [17]
  viability at 100 µg/mL: 105%
[6]; 50 ug/mL
  Fold change in viability AVG: 1.10
  In vitro activity against cancer cell lines, THP-1 AVG: 1.10
[6]; 100 ug/mL
  Fold change in viability AVG: 1.19
  In vitro activity against cancer cell lines, THP-1 AVG: 1.19
[7]; [18]
  viability at 72 h, 50 ug/mL: 78%
  viability at 72 h, 100 ug/mL: 72%
[8]; 50 ug/mL
  Fold change in viability AVG: 0.85
[8]; 100 ug/mL
  Fold change in viability AVG: 0.79
[9]; 50 ug/mL
  Fold change in viability AVG: 0.81
  In vitro activity against cancer cell lines, A549 AVG: 0.81
[9]; 100 ug/mL
  Fold change in viability AVG: 0.30
  In vitro activity against cancer cell lines, A549 AVG: 0.30
[9]; [19]
  viability at 50 µg/mL: 69%
[9]; [20]
  viability at 100 µg/mL: 26%

From patent publication US11292807B2 (OCEANS LTD., priority 2015, dated 2022)
